# Laboratory results as given in PubChem BioAssay AID1259407 (Chemical Carcinogenesis Research Information System (CCRIS), 2018).
# The source made the active and inactive calls. How the calls were made is not given here.
# Tested on: CCRIS mutagenicity, Ames/micronucleus/aberration tests
# Assay: CCRIS mutagenicity studies
# [1] = Test System: AMES SALMONELLA TYPHIMURIUM, Strain/Indicator: TA98, Metabolic Activation: HAMSTER, LIVER, S-9, AROCLOR 1254, Method: STANDARD PLATE
# [2] = Test System: AMES SALMONELLA TYPHIMURIUM, Strain/Indicator: TA98, Metabolic Activation: NONE, Method: STANDARD PLATE
# [3] = Test System: AMES SALMONELLA TYPHIMURIUM, Strain/Indicator: TA98, Metabolic Activation: RAT, LIVER, S-9, AROCLOR 1254, Method: STANDARD PLATE
# [4] = Test System: AMES SALMONELLA TYPHIMURIUM, Strain/Indicator: TA100, Metabolic Activation: HAMSTER, LIVER, S-9, AROCLOR 1254, Method: STANDARD PLATE
# [5] = Test System: AMES SALMONELLA TYPHIMURIUM, Strain/Indicator: TA100, Metabolic Activation: NONE, Method: STANDARD PLATE
# [6] = Test System: AMES SALMONELLA TYPHIMURIUM, Strain/Indicator: TA100, Metabolic Activation: RAT, LIVER, S-9, AROCLOR 1254, Method: STANDARD PLATE
# [7] = Test System: AMES SALMONELLA TYPHIMURIUM, Strain/Indicator: TA1535, Metabolic Activation: HAMSTER, LIVER, S-9, AROCLOR 1254, Method: STANDARD PLATE
# [8] = Test System: AMES SALMONELLA TYPHIMURIUM, Strain/Indicator: TA1535, Metabolic Activation: NONE, Method: STANDARD PLATE
# [9] = Test System: AMES SALMONELLA TYPHIMURIUM, Strain/Indicator: TA1535, Metabolic Activation: RAT, LIVER, S-9, AROCLOR 1254, Method: STANDARD PLATE
# [10] = Test System: AMES SALMONELLA TYPHIMURIUM, Strain/Indicator: TA1537, Metabolic Activation: HAMSTER, LIVER, S-9, AROCLOR 1254, Method: STANDARD PLATE
# [11] = Test System: AMES SALMONELLA TYPHIMURIUM, Strain/Indicator: TA1537, Metabolic Activation: NONE, Method: STANDARD PLATE
# [12] = Test System: AMES SALMONELLA TYPHIMURIUM, Strain/Indicator: TA1537, Metabolic Activation: RAT, LIVER, S-9, AROCLOR 1254, Method: STANDARD PLATE
# [13] = Test System: AMES SALMONELLA TYPHIMURIUM, Strain/Indicator: TA1538, Metabolic Activation: HAMSTER, LIVER, S-9, AROCLOR 1254, Method: STANDARD PLATE
# [14] = Test System: AMES SALMONELLA TYPHIMURIUM, Strain/Indicator: TA1538, Metabolic Activation: NONE, Method: STANDARD PLATE
# [15] = Test System: AMES SALMONELLA TYPHIMURIUM, Strain/Indicator: TA1538, Metabolic Activation: RAT, LIVER, S-9, AROCLOR 1254, Method: STANDARD PLATE
SMILES,mutagenic call [1],mutagenic call [2],mutagenic call [3],mutagenic call [4],mutagenic call [5],mutagenic call [6],mutagenic call [7],mutagenic call [8],mutagenic call [9],mutagenic call [10],mutagenic call [11],mutagenic call [12],mutagenic call [13],mutagenic call [14],mutagenic call [15],further results
CCCCC/C=C\C/C=C\CCCCCCCC(=O)O,inactive; negative,inactive; negative,inactive; negative,inactive; negative,inactive; negative,inactive; negative,inactive; negative,inactive; negative,inactive; negative,inactive; negative,inactive; negative,inactive; negative,inactive; negative,inactive; negative,inactive; negative,"mutagenic call (Test System: AMES SALMONELLA TYPHIMURIUM, Strain/Indicator: TA98, Metabolic Activation: HAMSTER, LIVER, S-9, AROCLOR 1254 (10%), Method: PREINCUBATION): inactive; negative; mutagenic call (Test System: AMES SALMONELLA TYPHIMURIUM, Strain/Indicator: TA98, Metabolic Activation: NONE, Method: PREINCUBATION): inactive; negative; mutagenic call (Test System: AMES SALMONELLA TYPHIMURIUM, Strain/Indicator: TA98, Metabolic Activation: RAT, LIVER, S-9, AROCLOR 1254 (10%), Method: PREINCUBATION): inactive; negative; mutagenic call (Test System: AMES SALMONELLA TYPHIMURIUM, Strain/Indicator: TA100, Metabolic Activation: HAMSTER, LIVER, S-9, AROCLOR 1254 (10%), Method: PREINCUBATION): inactive; negative; mutagenic call (Test System: AMES SALMONELLA TYPHIMURIUM, Strain/Indicator: TA100, Metabolic Activation: NONE, Method: PREINCUBATION): inactive; negative; mutagenic call (Test System: AMES SALMONELLA TYPHIMURIUM, Strain/Indicator: TA100, Metabolic Activation: RAT, LIVER, S-9, AROCLOR 1254 (10%), Method: PREINCUBATION): inactive; negative; mutagenic call (Test System: AMES SALMONELLA TYPHIMURIUM, Strain/Indicator: TA1535, Metabolic Activation: HAMSTER, LIVER, S-9, AROCLOR 1254 (10%), Method: PREINCUBATION): inactive; negative; mutagenic call (Test System: AMES SALMONELLA TYPHIMURIUM, Strain/Indicator: TA1535, Metabolic Activation: NONE, Method: PREINCUBATION): inactive; negative; mutagenic call (Test System: AMES SALMONELLA TYPHIMURIUM, Strain/Indicator: TA1535, Metabolic Activation: RAT, LIVER, S-9, AROCLOR 1254 (10%), Method: PREINCUBATION): inactive; negative; mutagenic call (Test System: AMES SALMONELLA TYPHIMURIUM, Strain/Indicator: TA1537, Metabolic Activation: HAMSTER, LIVER, S-9, AROCLOR 1254 (10%), Method: PREINCUBATION): inactive; negative; mutagenic call (Test System: AMES SALMONELLA TYPHIMURIUM, Strain/Indicator: TA1537, Metabolic Activation: NONE, Method: PREINCUBATION): inactive; negative; mutagenic call (Test System: AMES SALMONELLA TYPHIMURIUM, Strain/Indicator: TA1537, Metabolic Activation: RAT, LIVER, S-9, AROCLOR 1254 (10%), Method: PREINCUBATION): inactive; negative; mutagenic call (Test System: MOUSE LYMPHOMA, Strain/Indicator: L5178Y (TK+/TK-), Metabolic Activation: NONE, Method: SUSPENSION/PLATE): inactive; negative. reevaluation of results: negative; mutagenic call (Test System: MOUSE LYMPHOMA, Strain/Indicator: L5178Y (TK+/TK-), Metabolic Activation: RAT, LIVER, S-9, AROCLOR 1254, Method: SUSPENSION/PLATE): inactive; negative. reevaluation of results: negative"
C1CCC(C(CC2CCCCN2)C2CCCCC2)CC1 (configuration not stated),–,–,–,–,inactive; negative,–,–,–,–,–,–,–,–,–,–,"mutagenic call (Test System: AMES SALMONELLA TYPHIMURIUM, Strain/Indicator: TA100(FR1), Metabolic Activation: NONE, Method: STANDARD PLATE): inactive; negative; mutagenic call (Test System: AMES SALMONELLA TYPHIMURIUM, Strain/Indicator: TA100(FR1), Metabolic Activation: RAT, LIVER, S-9, PHENOBARBITAL AND 3-METHYLCHOLANTHRENE, Method: STANDARD PLATE): inactive; negative; mutagenic call (Test System: AMES SALMONELLA TYPHIMURIUM, Strain/Indicator: TA100, Metabolic Activation: RAT, LIVER, S-9, PHENOBARBITAL AND 3-METHYLCHOLANTHRENE, Method: STANDARD PLATE): inactive; negative; mutagenic call (Test System: CHINESE HAMSTER V-79, Strain/Indicator: V-79/6-THIOGUANINE, Metabolic Activation: NONE): inactive; negative; mutagenic call (Test System: CHINESE HAMSTER V-79, Strain/Indicator: V-79/6-THIOGUANINE, Metabolic Activation: RAT, LIVER, HEPATOCYTES): active; positive; mutagenic call (Test System: CHINESE HAMSTER V-79, Strain/Indicator: V-79/OUABAIN, Metabolic Activation: NONE): inactive; negative; mutagenic call (Test System: CHINESE HAMSTER V-79, Strain/Indicator: V-79/OUABAIN, Metabolic Activation: RAT, LIVER, HEPATOCYTES): inactive; negative"
CCCCC(CC)COC(=O)c1ccc(N(C)C)c([N+](=O)[O-])c1 (configuration not stated),active; positive,active; positive,active; positive,inactive; negative,inactive; negative,inactive; negative,inactive; negative,inactive; negative,inactive; negative,active; positive,active; positive,active; positive,active; positive,active; positive,active; positive,"mutagenic call (Test System: AMES SALMONELLA TYPHIMURIUM, Strain/Indicator: TA98, Metabolic Activation: HAMSTER, LIVER, S-9, AROCLOR 1254 (10%), Method: STANDARD PLATE): active; positive; mutagenic call (Test System: AMES SALMONELLA TYPHIMURIUM, Strain/Indicator: TA98, Metabolic Activation: RAT, LIVER, S-9, AROCLOR 1254 (10%), Method: STANDARD PLATE): active; positive; mutagenic call (Test System: AMES SALMONELLA TYPHIMURIUM, Strain/Indicator: TA100, Metabolic Activation: HAMSTER, LIVER, S-9, AROCLOR 1254 (10%), Method: STANDARD PLATE): inactive; negative; mutagenic call (Test System: AMES SALMONELLA TYPHIMURIUM, Strain/Indicator: TA100, Metabolic Activation: RAT, LIVER, S-9, AROCLOR 1254 (10%), Method: STANDARD PLATE): inactive; negative; mutagenic call (Test System: AMES SALMONELLA TYPHIMURIUM, Strain/Indicator: TA1535, Metabolic Activation: HAMSTER, LIVER, S-9, AROCLOR 1254 (10%), Method: STANDARD PLATE): inactive; negative; mutagenic call (Test System: AMES SALMONELLA TYPHIMURIUM, Strain/Indicator: TA1535, Metabolic Activation: RAT, LIVER, S-9, AROCLOR 1254 (10%), Method: STANDARD PLATE): inactive; negative; mutagenic call (Test System: AMES SALMONELLA TYPHIMURIUM, Strain/Indicator: TA1537, Metabolic Activation: HAMSTER, LIVER, S-9, AROCLOR 1254 (10%), Method: STANDARD PLATE): active; positive; mutagenic call (Test System: AMES SALMONELLA TYPHIMURIUM, Strain/Indicator: TA1537, Metabolic Activation: RAT, LIVER, S-9, AROCLOR 1254 (10%), Method: STANDARD PLATE): active; positive; mutagenic call (Test System: AMES SALMONELLA TYPHIMURIUM, Strain/Indicator: TA1538, Metabolic Activation: HAMSTER, LIVER, S-9, AROCLOR 1254 (10%), Method: STANDARD PLATE): active; positive; mutagenic call (Test System: AMES SALMONELLA TYPHIMURIUM, Strain/Indicator: TA1538, Metabolic Activation: RAT, LIVER, S-9, AROCLOR 1254 (10%), Method: STANDARD PLATE): active; positive"
